Reference: patent US8211662B2, “Nitroreductase enzymatic substrates” (Biomerieux, priority 2007, dated 2012)

Assays:
[1] = tested on: Salmonella typhimurium NCTC 74; test: Nitroreductase detection on Columbia agar, colonies read under UV; format: cell-based; design: key to Intensity of fluorescence, Salmonella typhimurium NCTC 74 / F: fluorescence (intensity), Salmonella typhimurium NCTC 74 / Intensity of the fluorescence, Salmonella typhimurium NCTC 74: − = no fluorescence detected; +/− = weak fluorescence; + = medium fluorescence; ++ = strong fluorescence
Protocol: (§1) A mass of 40 mg of each substrate was dissolved in 4 ml of dimethylformamide (DMF). This solution was entirely taken up in 400 ml of Columbia agar autoclaved beforehand and kept molten at 50° C. The final concentration for each substrate was 100 mg/l.
(§2) Each of the media was distributed into Petri dishes 90 mm in diameter, in a proportion of 20 ml per dish.
(§3) 18 microorganism strains derived from collections and belonging to various species of bacteria and of yeasts were inoculated onto these media by semi-quantitative isolation of 10 μl of a suspension at 0.5 McFarland diluted to 1/20. The media were incubated for 24 hours at 37° C., then the colonies formed were examined visually under UV illumination at 360-365 nm.

MRSA NCTC 11939 = test: as above; format: cell-based, Staphylococcus aureus; design: key: − = no fluorescence detected; +/− = weak fluorescence; + = medium fluorescence; ++ = strong fluorescence; details: 100 mg/l in Columbia agar, 24 h 37° C., UV 360-365 nm
Protocol: as §1, §2, §3

[2] = tested on: Staphylococcus epidermidis NCTC 11047; test: as above; format: cell-based; design: key: − = no fluorescence detected; +/− = weak fluorescence; + = medium fluorescence; ++ = strong fluorescence; details: 100 mg/l in Columbia agar, 24 h 37° C., UV 360-365 nm
Protocol: as §1, §2, §3

[3] = tested on: Enterococcus faecalis NCTC 775; test: as above; format: cell-based; design: key: − = no fluorescence detected; +/− = weak fluorescence; + = medium fluorescence; ++ = strong fluorescence; details: 100 mg/l in Columbia agar, 24 h 37° C., UV 360-365 nm
Protocol: as §1, §2, §3

[4] = tested on: Bacillus subtilis NCTC 9372; test: as above; format: cell-based; design: key: − = no fluorescence detected; +/− = weak fluorescence; + = medium fluorescence; ++ = strong fluorescence; details: 100 mg/l in Columbia agar, 24 h 37° C., UV 360-365 nm
Protocol: as §1, §2, §3

[5] = tested on: Enterobacter cloacae NCTC 11936; test: as above; format: cell-based; design: key: − = no fluorescence detected; +/− = weak fluorescence; + = medium fluorescence; ++ = strong fluorescence; details: 100 mg/l in Columbia agar, 24 h 37° C., UV 360-365 nm
Protocol: as §1, §2, §3

[6] = tested on: Candida albicans ATCC 90028; test: as above; format: cell-based; design: key: − = no fluorescence detected; +/− = weak fluorescence; + = medium fluorescence; ++ = strong fluorescence; details: 100 mg/l in Columbia agar, 24 h 37° C., UV 360-365 nm
Protocol: as §1, §2, §3

[7] = tested on: Staphylococcus aureus NCTC 6571; test: as above; format: cell-based; design: key: − = no fluorescence detected; +/− = weak fluorescence; + = medium fluorescence; ++ = strong fluorescence; details: 100 mg/l in Columbia agar, 24 h 37° C., UV 360-365 nm
Protocol: as §1, §2, §3

[8] = tested on: Pseudomonas aeruginosa NCTC 10662; test: as above; format: cell-based; design: key: − = no fluorescence detected; +/− = weak fluorescence; + = medium fluorescence; ++ = strong fluorescence; details: 100 mg/l in Columbia agar, 24 h 37° C., UV 360-365 nm
Protocol: as §1, §2, §3

[9] = tested on: Serratia marcescens NCTC 10211; test: as above; format: cell-based; design: key: − = no fluorescence detected; +/− = weak fluorescence; + = medium fluorescence; ++ = strong fluorescence; details: 100 mg/l in Columbia agar, 24 h 37° C., UV 360-365 nm
Protocol: as §1, §2, §3

[10] = tested on: Escherichia coli NCTC 10418; test: as above; format: cell-based; design: key: − = no fluorescence detected; +/− = weak fluorescence; + = medium fluorescence; ++ = strong fluorescence; details: 100 mg/l in Columbia agar, 24 h 37° C., UV 360-365 nm
Protocol: as §1, §2, §3

[11] = tested on: Yersinia enterocolitica NCTC 11176; test: as above; format: cell-based; design: key: − = no fluorescence detected; +/− = weak fluorescence; + = medium fluorescence; ++ = strong fluorescence; details: 100 mg/l in Columbia agar, 24 h 37° C., UV 360-365 nm
Protocol: as §1, §2, §3

[12] = tested on: Streptococcus pyogenes NCTC 8306; test: as above; format: cell-based; design: key: − = no fluorescence detected; +/− = weak fluorescence; + = medium fluorescence; ++ = strong fluorescence; details: 100 mg/l in Columbia agar, 24 h 37° C., UV 360-365 nm
Protocol: as §1, §2, §3

[13] = tested on: Listeria monocytogenes NCTC 11994; test: as above; format: cell-based; design: key: − = no fluorescence detected; +/− = weak fluorescence; + = medium fluorescence; ++ = strong fluorescence; details: 100 mg/l in Columbia agar, 24 h 37° C., UV 360-365 nm
Protocol: as §1, §2, §3

[14] = tested on: Candida glabrata NCPF 3943; test: as above; format: cell-based; design: key to Intensity of fluorescence, Candida glabrata NCPF3943 / F: fluorescence (intensity), Candida glabrata NCPF 3943 / Intensity of the fluorescence, Candida glabrata NCPF 3943: − = no fluorescence detected; +/− = weak fluorescence; + = medium fluorescence; ++ = strong fluorescence; details: 100 mg/l in Columbia agar, 24 h 37° C., UV 360-365 nm
Protocol: as §1, §2, §3

S. epidermidis 2 strains = test: Detection of various strains of S. aureus in the presence of substrates; format: cell-based
Protocol: as §1, §2
18 microorganism strains derived from collections and belonging to various species of bacteria and of yeasts were inoculated onto these media by semi-quantitative isolation of 10 μl of a suspension at 0.5 McFarland diluted to 1/20. […]

Staph spp 12 strains = test: as above; format: cell-based
[15] = tested on: Morganella morganii 462403 (wild); test: Nitroreductase detection on Columbia agar, colonies read under UV; format: cell-based; design: key to Intensity of fluorescence, Morganella morganii 462403 / F: fluorescence (intensity), Morganella morganii 462403 (wild) / Intensity of the fluorescence, Morganella morganii 462403 (wild): − = no fluorescence detected; +/− = weak fluorescence; + = medium fluorescence; ++ = strong fluorescence; details: 100 mg/l in Columbia agar, 24 h 37° C., UV 360-365 nm
Protocol: as §1, §2, §3

[16] = tested on: S. aureus (including MRSA) 10 strains; test: Detection of various strains of S. aureus in the presence of substrates; format: cell-based, Staphylococcus aureus; details: for No. of strains detected, S. aureus (including MRSA): 10 strains
Enterococcus 6 strains = test: as above; format: cell-based
[17] = tested on: Acinetobacter baumanii ATCC 19606; test: Nitroreductase detection on Columbia agar, colonies read under UV; format: cell-based; design: key to Intensity of fluorescence, Acinetobacter baumanii ATCC 19606 / Intensity of the fluorescence, Acinetobacter baumanii ATCC 19606: − = no fluorescence detected; +/− = weak fluorescence; + = medium fluorescence; ++ = strong fluorescence; details: 100 mg/l in Columbia agar, 24 h 37° C., UV 360-365 nm
Protocol: as §1, §2, §3

For `COc1cc(-c2nc3ccccc3o2)c([N+](=O)[O-])cc1OC` [Substrate 6], the “Intensity of fluorescence, Salmonella typhimurium NCTC 74” value ([1]; 100 mg/l in Columbia agar, 24 h 37° C., UV 360-365 nm) was “−”, the “Salmonella typhimurium result with the substrate” value ([1]; table 2) was “negative” and the “Intensity of fluorescence, Staphylococcus aureus NCTC 11939” value (MRSA NCTC 11939) was “+”. For the same molecule, the “Intensity of fluorescence, Staphylococcus epidermidis NCTC 11047” value [2] was “−”, the “Intensity of fluorescence, Enterococcus faecalis NCTC 775” value [3] was “−” and the “Intensity of fluorescence, Bacillus subtilis NCTC 9372” value [4] was “−”. For the same molecule, the “Intensity of fluorescence, Enterobacter cloacae NCTC 11936” value [5] was “+”, the “Intensity of fluorescence, Candida albicans ATCC 90028” value [6] was “−” and the “Intensity of fluorescence, Staphylococcus aureus NCTC 6571” value [7] was “+”. The “Intensity of fluorescence, Pseudomonas aeruginosa NCTC 10662” value [8] was “−”, the “Intensity of fluorescence, Serratia marcescens NCTC 10211” value [9] was “+” and the “Intensity of fluorescence, Escherichia coli NCTC 10418” value [10] was “+”. For the same molecule, the “Intensity of fluorescence, Yersinia enterocolitica NCTC 11176” value [11] was “−”, the “Intensity of fluorescence, Streptococcus pyogenes NCTC 8306” value [12] was “−” and the “Intensity of fluorescence, Listeria monocytogenes NCTC 11994” value [13] was “−”. The “Intensity of fluorescence, Candida glabrata NCPF3943” value [14] was “−”, the “No. of strains detected, S. epidermidis” value (S. epidermidis 2 strains; 24 h) was 0 and the “No. of strains detected, S. epidermidis” value (S. epidermidis 2 strains; 48 h) was 2. The “No. of strains detected, Staph spp” value (Staph spp 12 strains; 24 h) was 12, the “No. of strains detected, Staph spp” value (Staph spp 12 strains; 48 h) was 12 and the “Intensity of fluorescence, Morganella morganii 462403” value [15] was “+/−”. For the same molecule, the “Distinguishing or identifying Staphylococcus aureus strains, in particular MRSA, from most of the other Gram-positive bacterial strains” value [16] was “make it possible to distinguish or identify the Staphylococcus aureus strains”, the “No. of strains detected, S. aureus (including MRSA)” value ([16]; 24 h) was 10 and the “No. of strains detected, S. aureus (including MRSA)” value ([16]; 48 h) was 10. The “No. of strains detected, Enterococcus” value (Enterococcus 6 strains; 24 h) was 0, the “No. of strains detected, Enterococcus” value (Enterococcus 6 strains; 48 h) was 1 and the “Intensity of fluorescence, Acinetobacter baumanii ATCC 19606” value [17] was “−”.
